Measured values taken from US20030040531A1, “Remedies for reperfusion injury containing integrin alphanubeta 3 antagonist” (priority 2000, published 2003).

How the values were obtained:
[1] = test system: hamster acute ischemia-reperfusion model; assay: hamster acute ischemia-reperfusion model; type: in vivo; settings: for reduction of myocardial infarct size (IS/AR): sodium salt mixed with arginine; for myocardial infarct size (IS/AR): average±SE, n=5, solvent administration group 49.3±7.1%
Experimental: A polyethylene tube was inserted into the carotid artery and the survical vein of Syrian male hamsters (10 to 13 weeks old) under pentobarbital anesthesia (60 mg/kg, i.p.). An electrocardiogram (I or II leading) was measured through a bioelectricity amplifier by leading from electrodes which had pierced the limbs. A polyethylene tube was inserted into the trachea, and artificial respiration was carried out with an artificial respirator (amount of ventilation: 10 ml/kg/stroke, number of times of ventilation: 70 strokes/min). The blood pressure was measured through a blood pressure amplifier, and the heart rate was measured with a heart rate unit using blood pressure as a trigger. The animals underwent thoracotomy, and the coronary, together with the myocardium, was then occluded using a suture with a needle. Ischemia for 90 min was followed by reperfusion for 2 hr to quantitatively determine myocardial infarct size.
A sodium salt of the compound represented by formula (IV) was mixed with a 2-fold equivalent of arginine, and the mixture was dissolved in a 5% glucose solution. The dose volume was 2 ml/kg+2 ml/kg/h (bolus +infusion). For a solvent administration group, a 0.64 mg/ml arginine/5% glucose solution was used. The medicament was continuously administered through an infusion pump for the period starting with one min before ischemia and ending with the completion of the experiment. After reperfusion for 2 hr, the animals were slaughtered by intraveneous injection of 1,000 U/kg of heparin and an excessive amount of pentobarbital, and the heart was then removed. After perfusion with a Ringer solution, blood was washed away from the heart, and the coronary artery was re-occluded. After the reocclusion, 0.4 ml of 0.1% Evans blue was injected through the aorta. The heart was rinsed with physiological saline and was then cut into about 1 mm slices. For each slice, the left ventricle (LV) was separated, and the weight of the left ventricle and the weight of the area-at-risk (AR) were measured. The area-at-risk was stained with a 50 mM Tris.HCl (pH 7.4, 37° C.) buffer containing 1.5% triphenyltetrazolium chloride heated at 37° C., and the weight of the infarct area (IS; infarct size) was measured. The measurement of the weight was carried out under a blind.

[2] = test system: hamster vascular smooth muscle cells; assay: adhesion of hamster vascular smooth muscle cells to rat vitronectin; type: cell-based; settings: Mesocricetus auratus, read-out: concentration (IC50) necessary for inhibition of adhesion to vitronectin
Experimental: The adhesion of vascular smooth muscle cells to immobilized human vitronectin was measured in accordance with the method of Liaw et al. (L. Liaw et al., Circ. Res., 74, 214 (1994)). A Dulbecco's phosphate buffer (Dulbecco's PBS(−)) solution of human serum-derived vitronectin adjusted to a concentration of 4 μg/ml was first added to wells (50 μl/well) of a microplate (Maxisorp), and a reaction for immobilization was allowed to proceed at 4° C. overnight. After washing twice with 150 μl of Dulbecco's PBS (−), Dulbecco's PBS (−) containing 10 mg/ml of bovine serum albumin was added, followed by blocking at 37° C. for one hr. The microplate was then washed twice with 150 μl of Dulbecco's PBS (−) to prepare an assay plate.
Next, 50 μl of a Dulbecco's modified Eagle's basal medium containing 20 mg/ml of bovine serum albumin with a medicament added thereto was added to the wells of the human vitronectin-coated assay microplate, followed by pre-cultivation under 5% carbon dioxide at 37° C. for 10 min. […] The absorbance of the microplate thus obtained was measured at 595 nm. […] The inhibition was calculated by the following equation. IC50 was determined from a primary regression line of the logarithm of each concentration of the test compound and the logarithm of (100−inhibition)/inhibition. […]

integrin αvβ3 = integrin αvβ3 (Homo sapiens, UniProt P05106+P06756); assay: integrin αvβ3 binding assay (Pharmacological Example 1 in WO 99/38849)
From the text: Whether or not a compound has integrin αvβ3 antagonistic activity may be determined by assaying the antagonistic action by integrin αvβ3 binding assay as described, for example, in Pharmacological Test Example 1 in WO 99/38849.

Sequence of integrin αvβ3 (P06756 31-1048): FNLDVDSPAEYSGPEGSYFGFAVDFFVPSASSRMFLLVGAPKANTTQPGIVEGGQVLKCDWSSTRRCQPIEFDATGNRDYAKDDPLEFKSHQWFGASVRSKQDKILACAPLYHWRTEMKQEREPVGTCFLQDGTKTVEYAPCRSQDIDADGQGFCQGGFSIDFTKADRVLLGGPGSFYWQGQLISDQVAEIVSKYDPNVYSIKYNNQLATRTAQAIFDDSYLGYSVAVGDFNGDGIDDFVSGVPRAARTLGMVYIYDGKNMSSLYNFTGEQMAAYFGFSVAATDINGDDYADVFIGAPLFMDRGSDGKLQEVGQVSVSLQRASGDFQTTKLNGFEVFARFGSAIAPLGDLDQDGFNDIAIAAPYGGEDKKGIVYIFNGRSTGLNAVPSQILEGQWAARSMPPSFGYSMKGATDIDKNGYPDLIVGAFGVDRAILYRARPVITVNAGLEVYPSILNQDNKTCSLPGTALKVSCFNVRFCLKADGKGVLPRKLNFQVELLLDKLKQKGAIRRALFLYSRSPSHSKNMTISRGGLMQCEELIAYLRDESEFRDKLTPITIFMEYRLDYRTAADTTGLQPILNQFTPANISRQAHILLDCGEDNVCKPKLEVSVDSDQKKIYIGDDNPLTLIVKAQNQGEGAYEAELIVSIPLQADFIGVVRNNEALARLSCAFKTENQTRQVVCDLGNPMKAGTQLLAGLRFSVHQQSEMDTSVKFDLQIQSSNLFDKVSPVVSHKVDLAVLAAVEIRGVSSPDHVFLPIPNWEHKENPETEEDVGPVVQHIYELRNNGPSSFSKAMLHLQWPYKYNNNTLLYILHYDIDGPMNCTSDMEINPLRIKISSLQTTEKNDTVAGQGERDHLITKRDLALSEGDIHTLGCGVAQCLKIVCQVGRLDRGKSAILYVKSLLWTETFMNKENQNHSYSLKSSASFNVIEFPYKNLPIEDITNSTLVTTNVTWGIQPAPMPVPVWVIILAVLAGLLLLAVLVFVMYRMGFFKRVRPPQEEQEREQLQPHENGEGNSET
Sequence of integrin αvβ3 (P05106 27-788): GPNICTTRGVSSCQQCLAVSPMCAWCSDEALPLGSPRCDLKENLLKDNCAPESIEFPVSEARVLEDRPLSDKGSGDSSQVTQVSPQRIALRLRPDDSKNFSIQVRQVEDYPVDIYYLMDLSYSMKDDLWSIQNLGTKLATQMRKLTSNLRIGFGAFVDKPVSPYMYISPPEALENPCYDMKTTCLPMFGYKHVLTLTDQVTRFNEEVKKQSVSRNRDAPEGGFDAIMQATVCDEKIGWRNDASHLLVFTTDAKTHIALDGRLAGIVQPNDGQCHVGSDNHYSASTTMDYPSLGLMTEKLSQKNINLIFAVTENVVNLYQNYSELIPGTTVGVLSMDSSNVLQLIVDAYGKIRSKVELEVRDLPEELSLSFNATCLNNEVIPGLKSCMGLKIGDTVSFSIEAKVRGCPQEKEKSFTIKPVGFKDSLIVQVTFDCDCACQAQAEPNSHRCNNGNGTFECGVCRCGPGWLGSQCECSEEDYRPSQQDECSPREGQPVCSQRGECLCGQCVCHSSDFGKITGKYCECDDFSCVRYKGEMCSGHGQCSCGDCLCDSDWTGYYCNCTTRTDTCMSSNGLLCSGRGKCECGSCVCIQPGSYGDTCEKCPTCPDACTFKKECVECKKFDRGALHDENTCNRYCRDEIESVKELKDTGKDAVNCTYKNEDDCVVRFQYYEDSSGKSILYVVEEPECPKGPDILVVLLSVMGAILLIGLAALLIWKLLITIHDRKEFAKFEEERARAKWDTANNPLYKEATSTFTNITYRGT

O=C(NCC(NS(=O)(=O)c1ccccc1)C(=O)O)c1ccc(N2CCC(NC3=NCCCN3)CC2)c(F)c1 (stereo in doubt) [formula (IV), (2S)-Benzenesulfonylamino-3-[3-fluoro-4-{4-(1,4,5,6-tetrahydropyrimidin-2-ylamino)-piperidin-1-yl}benzoylamino]propionic Acid]
reduction of myocardial infarct size (IS/AR) ([1]; group H 1.0 mg/kg+1.0 mg/kg/h (bolus+infusion), significant difference): 49.3% | myocardial infarct size (IS/AR) ([1]; group H 1.0 mg/kg+1.0 mg/kg/h): 25.0±2.8% | reduction of myocardial infarct size (IS/AR) ([1]; group L 0.33 mg/kg+0.33 mg/kg/h (bolus+infusion)): 30.9% | myocardial infarct size (IS/AR) ([1]; group L 0.33 mg/kg+0.33 mg/kg/h): 34.0±5.0% | IC50 [2]: 730 nM | IC50 (integrin αvβ3): 0.2 nM
